{"source": "patent US10039761B2", "about": "“Co-crystals and pharmaceutical compositions comprising the same” (Vertex Pharmaceuticals Incorporated, priority 2013, dated 2018)", "key": {"[1]": {"test": "Body weight in ST-02-0004 xenograft studies", "details": "in vivo, po, 25 mg/kg", "experimental": "The in vivo activities of Compounds (1) and (2) were compared in combination with focused beam IR in a primary gastric cancer subcutaneous xenograft model. In the ST 02 0004 model, focused IR was administered on three consecutive days alone and in combination with Compound (1) or Compound (2). […] For all experimental groups, treatment was generally well tolerated as evidenced by maximum body weight losses ranging from −8.06% to −10.0% 10 to 48 days after treatment initiation\nThe anti-tumor activity of Compound (2) in combination with focused-beam IR and the standard of care agents, paclitaxel and carboplatin, was also evaluated in the ST 02 0004 model. Treatment with paclitaxel, carboplatin, and IR was administered once per week for three weeks alone or in combination with Compound (2). […] Further, the 50 and 25 mg/kg Compound (2), paclitaxel/carboplatin, IR combination groups were statistically different (P<0.05) from the paclitaxel/carboplatin, paclitaxel/carboplatin/50 mg/kg Compound (2), and paclitaxel/carboplatin/IR groups. Compound (2) blood exposures were 9.3 and 27 μg*h/mL for the 25 and 50 mg/kg Compound (2) bid groups, respectively."}, "[2]": {"test_system": "HCC-1599", "test": "Doxorubicin combination in triple negative breast cancer cells", "format": "cell-based", "details": "Compound (2) with doxorubicin; plating density unknown; BRCA mutant", "experimental": "(§1) The cell-based experiments and assays were performed with either molecule but not always with both. Compounds (1) and (2) were generally very similar in those assays and experiments. Analysis of the combination experiments was performed using two methods: the Bliss Additivity model and the Mixtures Blend method to determine the degree of synergy, additivity, or antagonism. In the Bliss method, a matrix of Bliss scores was generated for each cell line and treatment, and a sum of the Bliss values over the range of combination concentrations tested was calculated. […] Larger average Bliss values indicate greater confidence in reporting synergy, and smaller scores indicate greater confidence in reporting antagonism. In the Mixtures Blend method combinants were added in a range of optimal ratios using design of experiment (DOE) software (DX-8 from STAT-EASE); the cells were irradiated with 2 Gy as required. Synergy was determined using statistical analysis of the data (ANOVA) to indicate linear (additivity) or statistically significant (p<0.1) non-linear (antagonism or synergy) mixes of the combinants."}, "[3]": {"test_system": "HCC-1395", "test": "Doxorubicin combination in triple negative breast cancer cells", "format": "cell-based", "details": "Compound (2) with doxorubicin; plating density 5000; BRCA mutant", "experimental": "as §1"}, "[4]": {"test_system": "HCC-1937", "test": "Doxorubicin combination in triple negative breast cancer cells", "format": "cell-based", "details": "Compound (2) with doxorubicin, BRCA mutant", "experimental": "as §1"}, "[5]": {"test_system": "MDA-MB-436", "test": "Doxorubicin combination in triple negative breast cancer cells", "format": "cell-based", "details": "Compound (2) with doxorubicin, BRCA mutant", "experimental": "as §1"}, "[6]": {"test_system": "MDA-MB-468", "test": "Doxorubicin combination in triple negative breast cancer cells", "format": "cell-based", "details": "Compound (2) with doxorubicin, BRCA wild-type", "experimental": "as §1"}, "[7]": {"test": "Body weight in OD26749 xenograft studies", "format": "in vivo, nude mice", "experimental": "The in vivo efficacies of Compounds (1) and (2) in combination with whole body IR were examined in the OD26749 primary NSCLC (non-small cell lung cancer) and the OE-19 GEJ cell line xenograft models. In these studies, Compounds (1) and (2) were formulated with 16% captisol/1% PVP/1% HPMC E5 pH2.\nThe in vivo efficacy of Compound (1) was evaluated in the primary OD26749 NSCLC subcutaneous xenograft model. […] Efficacy was evaluated using a regimen in which 2-Gy whole body IR was administered twice, one week apart. Compound (1) was administered PO (tid at 0, 3, and 7 h) at 100 mg/kg alone or with a single 2 Gy dose of whole body IR at 3.25 h. Seven days later, the same regimens were repeated. Compound (1) in combination with 2 Gy whole body IR induced significant tumor regression (% T/Ti of −75; P<0.01) compared to IR alone.\nThe efficacies of Compounds (1) and (2) in combination with whole body IR (2 Gy) were evaluated in the OD26749 primary NSCLC xenograft model at a Compound (1) dose level of 100 mg/kg PO bid (0 and 4 h) and Compound (2) dose levels of 50 mg/kg and 100 mg/kg PO bid (0 and 4 h). Two cycles of whole body IR (2 Gy) were given 15 min after the first compound administration (0.25 hour). Control animals were administered vehicle PO bid (0 and 4 h). Two cycles of treatment were performed on Day 0 and Day 7."}, "[8]": {"test_system": "FaDu cells", "test": "Clonogenic survival of irradiated cancer cell lines", "format": "cell-based", "text": "(§2) The clonogenic cell survival assay measures the ability of a cell to proliferate indefinitely, thereby retaining its self-renewing ability to form a colony (i.e., clone). This assay has been a mainstay in radiation oncology for decades and was used to determine the effect of Compound (1) on the clonogenicity of a panel of cell lines across multiple tumor types following radiation. […] A DEF greater than 1.5 is generally considered to be clinically meaningful; therefore, by these standards, Compound (1) would be characterized as a strong radio-enhancing agent."}, "[9]": {"test_system": "Miapaca2 cells", "test": "Clonogenic survival of irradiated cancer cell lines", "format": "cell-based", "details": "with radiation; surviving fraction 0.1", "text": "as §2"}, "[10]": {"test_system": "OD26749 primary NSCLC xenograft", "test": "OD26749 primary NSCLC xenograft efficacy with whole body IR", "format": "in vivo, nude mice", "details": "for % T/C (Day 29): 2 Gy IR ([…]) q7dx2"}}}
{"compound": "[2H]c1nc(C)nc([2H])c1-c1cc(NC[C@@H](C)c2cccc3c(C(=O)NC)ccnc23)ncn1", "note": "[Compound (2), (S)-N-methyl-8-(1-((2′-methyl-4′,6′-dideutero-[4,5′-bipyrimidin]-6-yl)amino)propan-2-yl)quinoline-4-carboxamide]", "values": [{"measurement": "Max. body wt loss (%)", "setting": "[1]", "result": "−6.73", "unit": "%"}, {"measurement": "Average Bliss score", "setting": "[2]", "result": 14.3}, {"measurement": "Average Bliss score", "setting": "[3]", "result": 11.1}, {"measurement": "Average Bliss score", "setting": "[4]; plating density 5000", "result": 16.6}, {"measurement": "Average Bliss score", "setting": "[4]; plating density 20000", "result": 15.6}, {"measurement": "Average Bliss score", "setting": "[5]; plating density 5000", "result": 14.5}, {"measurement": "Average Bliss score", "setting": "[5]; plating density 20000", "result": 14.4}, {"measurement": "Average Bliss score", "setting": "[6]; plating density 5000", "result": 23.1}, {"measurement": "Average Bliss score", "setting": "[6]; plating density 20000", "result": 24.7}]}
{"compound": "CNC(=O)c1ccnc2c([C@H](C)CNc3cc(-c4cnc(C)nc4)ncn3)cccc12", "note": "[Compound (1), (S)-N-methyl-8-(1-((2′-methyl-[4,5′-bipyrimidin]-6-yl)amino)propan-2-yl)quinoline-4-carboxamide]", "values": [{"measurement": "Max. body wt loss (%)", "setting": "[7]; PO 25 mg/kg bid (0, 4 h), 2 Gy IR ([…]) q7dx2, Day 8", "result": "−7.70", "unit": "%"}, {"measurement": "Max. body wt loss (%)", "setting": "[7]; PO 50 mg/kg bid (0, 4 h), 2 Gy IR ([…]) q7dx2, Day 8", "result": "−5.50", "unit": "%"}, {"measurement": "Max. body wt loss (%)", "setting": "[7]; PO 100 mg/kg bid (0, 4 h), 2 Gy IR ([…]) q7dx2, Day 8", "result": "−3.70", "unit": "%"}, {"measurement": "Max. body wt loss (%)", "setting": "[7]; PO 100 mg/kg tid (0, 3, 7 h) q7dx2, no IR", "result": "weight gain"}, {"measurement": "Max. body wt loss (%)", "setting": "[7]; PO 100 mg/kg tid (0, 3, 7 h) qdx1, 2 Gy qdx1 (3.25 h), Day 2", "result": "−9.70", "unit": "%"}, {"measurement": "Max. body wt loss (%)", "setting": "[7]; PO 100 mg/kg tid (0, 3, 7 h) qdx1, no IR, Day 2", "result": "−2.40", "unit": "%"}, {"measurement": "Max. body wt loss (%)", "setting": "[7]; PO 200 mg/kg qd, 2 Gy IR ([…]) q7dx2, Day 1", "result": "−6.10", "unit": "%"}, {"measurement": "colony formation", "setting": "[8]; Compound (1) and radiation, as little as 0.5 Gy", "result": "completely eliminated colony formation"}, {"measurement": "dose enhancement factor (DEF)", "setting": "[8]; with radiation, surviving fraction 0.1", "result": "> 8"}, {"measurement": "dose enhancement factor (DEF)", "setting": "[9]", "result": 2.5}, {"measurement": "% T/C (Day 29)", "setting": "[10]; PO 25 mg/kg bid (0, 4 h)", "result": 25.6, "unit": "%"}, {"measurement": "% T/C (Day 20)", "setting": "[10]; PO 100 mg/kg tid (0, 3, 7 h) qdx1, 2 Gy qdx1 (3.25 h) whole body IR, 100 mg/kg", "result": 26, "unit": "%"}, {"measurement": "% T/C (Day 20)", "setting": "[10]; PO 100 mg/kg tid (0, 3, 7 h) qdx1, no IR", "result": 101, "unit": "%"}, {"measurement": "% T/C (Day 29)", "setting": "[10]; PO 200 mg/kg qd", "result": 6.5, "unit": "%"}]}
